Paper PMC8242467 (Cell Reports, 2021)
Counter-ions that a name gives are not always drawn.

Molecular target: T1, mitochondrial calcium uniporter (MCU) (Homo sapiens, UniProt Q8NE86)
T1 sequence (Q8NE86 51-351): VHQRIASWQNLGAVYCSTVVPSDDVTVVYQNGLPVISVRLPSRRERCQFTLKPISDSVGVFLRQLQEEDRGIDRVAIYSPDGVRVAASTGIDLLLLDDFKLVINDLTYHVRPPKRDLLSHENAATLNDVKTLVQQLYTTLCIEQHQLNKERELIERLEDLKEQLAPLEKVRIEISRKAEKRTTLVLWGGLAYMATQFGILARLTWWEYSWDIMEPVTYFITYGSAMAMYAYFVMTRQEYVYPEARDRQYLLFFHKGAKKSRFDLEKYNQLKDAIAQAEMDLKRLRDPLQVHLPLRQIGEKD
Experiment: mitochondrial Ca2+ uptake in permeabilized HeLa cells
Assay type: cell-based

## CCC(C)(C)c1ccc(CC(C)CN2C[C@@H](C)O[C@@H](C)C2)cc1 (stereo partly drawn) [amorolfine, (2R,6S)-2,6-dimethyl-4-[2-methyl-3-[4-(2-methylbutan-2-yl)phenyl]propyl]morpholine;hydrochloride]
  EC50: 86.9 µM
